From US20240285600A1, “NOVEL MKRN1 INHIBITOR AND PHARMACEUTICAL COMPOSITION FOR PREVENTING OR TREATING OBESITY OR FATTY LIVER COMPRISING THE SAME” (UIF (University Industry Foundation), Yosei University, priority 2023, published 2024)

What was measured:
AMPK = settings: HepG2 cells, cultured for 16 or 24 hours, FIG. 9
HepG2 cells = assay: Fat accumulation in HepG2 cells treated with AMPK activator and PAOA; assay type: cell-based; settings: PAOA 1 mM, FIG. 8
Experimental: Specifically, HepG2 cells were cultured, and then treated with various types of AMPK activators. Thereafter, the cells were treated with palmitic acid and oleic acid (PAOA) at a concentration of 1 mM, and further cultured, and the degree of fat accumulation was then confirmed.

[1] = system: wild-type mice fed an HFHF diet; assay: Therapeutic effect on steatohepatitis in mice fed an HFHF diet, ebastine after 16 weeks; assay type: in vivo; settings: HFHF diet 20 weeks
Experimental: (§1) Body weights were measured once every 3 to 4 days for 20 weeks, and the liver was isolated at the end of the experiment. Thereafter, a histological examination was performed.

[2] = system: wild-type mice fed an HFHF diet; assay: Anti-obesity/anti-steatohepatitis effect in mice fed an HFHF diet, ebastine after 4 weeks; assay type: in vivo; settings: HFHF diet 20 weeks
Experimental: as §1

[3] = system: wild-type mice fed a CDAHFD; assay: Anti-steatohepatitis effect in mice fed a CDAHFD, ebastine after 2 weeks; assay type: in vivo; settings: CDAHFD 6 weeks, vs control
Experimental: Body weights were measured once every 3 to 4 days for 6 weeks, and the liver was isolated at the end of the experiment. Thereafter, a histological examination was performed.

Structure (SMILES): CC(C)(C)c1ccc(C(=O)CCCN2CCC(OC(c3ccccc3)c3ccccc3)CC2)cc1 [ebastine]
- amount of AMPK (AMPK): increased
- amount of phosphorylated AMPK (AMPK): increased
- degree of fat accumulation (HepG2 cells): effective in suppressing fat accumulation
- weight of the liver ([1]; ebastine 5 mg/kg after 16 weeks, FIG. 15C): lowest
- body weight change ([1]; ebastine 1 and 5 mg/kg after 16 weeks (for 4 weeks), vs control, FIG. 15A): no difference
- liver shape observed with the naked eye ([1]; ebastine after 16 weeks, FIG. 15B): close to a normal shape
- expression level of MKRN1 in the liver (immunohistochemistry) ([1]; ebastine after 16 weeks, vs control, FIG. 15D): decreased
- fat accumulation in the liver (H&E) ([1]; ebastine after 16 weeks, vs control, FIG. 15E): almost no fat accumulated in the liver
- liver fibrosis (Sirius Red) ([1]; ebastine after 16 weeks, vs control, FIG. 15F): did not progress
- liver inflammation (F4/80 IHC) ([1]; ebastine after 16 weeks, vs control, FIG. 15G): suppressed
- expression levels of fibrosis- and inflammation-related genes in the liver (RT-PCR) ([1]; ebastine after 16 weeks, vs control, FIG. 15H): generally suppressed
- weight of the liver ([2]; ebastine 5 mg/kg after 4 weeks, FIG. 13C): lowest
- body weight gain ([2]; ebastine 1 and 5 mg/kg after 4 weeks, vs control, FIG. 13A): less
- liver shape observed with the naked eye ([2]; ebastine after 4 weeks, FIG. 13B): close to a normal shape
- expression level of MKRN1 in the liver (immunohistochemistry) ([2]; ebastine after 4 weeks, vs control): decreased
- fat accumulation in the liver (H&E) ([2]; ebastine after 4 weeks, vs control, FIG. 13E): almost no fat accumulated in the liver
- liver fibrosis (Sirius Red) ([2]; ebastine after 4 weeks, vs control, FIG. 13F): did not progress
- liver inflammation (F4/80 IHC) ([2]; ebastine after 4 weeks, vs control, FIG. 13G): suppressed
- body weight ([3]; ebastine 1 and 5 mg/kg after 2 weeks, FIG. 14A): no significant difference
- liver condition observed with the naked eye ([3]; ebastine after 2 weeks, FIG. 14B): appeared similar
- liver weight ([3]; ebastine after 2 weeks, FIG. 14C): no difference
- expression level of MKRN1 in the liver (immunohistochemistry) ([3]; ebastine after 2 weeks, FIG. 14D): decreased
- fat accumulation in the liver (H&E) ([3]; ebastine after 2 weeks, FIG. 14E): almost no fat accumulated in the liver
- liver fibrosis (Sirius Red) ([3]; ebastine after 2 weeks, FIG. 14F): did not progress
- liver inflammation (F4/80 IHC) ([3]; ebastine after 2 weeks, FIG. 14G): suppressed
